In patent US5861413A, “2-oxo- and 2-thio-1,2-dihydroquinolinyl-oxazolidinones” (Bayer Aktiengesellschaft, priority 1996, dated 1999) one finds MIC data, which are given here for 8 molecules.

Format in all cases: cell-based
One experiment concerns Staph. 133. In words: MIC by serial dilution on Iso-Sensitest agar, Staph. 133. The conditions noted are these: 37° C., about 20 hours, about 10^4 colony-forming particles. As to the method: (§1) The minimum inhibitory concentrations (MIC) there determined by the serial dilution method on Iso-Sensitest agar (Oxoid). For each test substance, a number of agar plates were prepared which, at twice the dilution in each case, contained falling concentrations of the active compound. The agar plates were inoculated using a multipoint inoculator (Denley). For inoculation, overnight cultures of the pathogenic organisms were used which had previously been diluted such that each inoculation point contained about 10^4 colony-forming particles. The inoculated agar plates were incubated at 37° C., and the microbial growth was read off after about 20 hours. The MIC (μg/ml) indicates the lowest active compound concentration at which it was not possible to detect growth using the naked eye.

A further experiment deals with Staph. 9TV. Nature of the experiment: MIC by serial dilution on Iso-Sensitest agar, Staph. 9TV. To be noted: 37° C., about 20 hours, about 10^4 colony-forming particles. Here is the method:
as §1

A further experiment has as its system Psdm. Bonn. Nature of the experiment: MIC by serial dilution on Iso-Sensitest agar, Psdm. Bonn. To be noted: 37° C., about 20 hours, about 10^4 colony-forming particles. Here is the method: as §1
The subject of the next experiment is Klebs. 57 USA. Nature of the experiment: MIC by serial dilution on Iso-Sensitest agar, Klebs. 57 USA. The conditions noted are these: 37° C., about 20 hours, about 10^4 colony-forming particles. Here is the method: as §1
The test system of another experiment is Staph. 48N. Nature of the experiment: MIC by serial dilution on Iso-Sensitest agar, Staph. 48N. To be noted: 37° C., about 20 hours, about 10^4 colony-forming particles. As to the method: as §1
The next experiment concerns Staph 25701. Nature of the experiment: MIC by serial dilution on Iso-Sensitest agar, Staph 25701. The conditions noted are these: 37° C., about 20 hours, about 10^4 colony-forming particles. Here is the method:
as §1

A further experiment relates to E. coli Neumann. Nature of the experiment: MIC by serial dilution on Iso-Sensitest agar, E. coli Neumann. To be noted: Escherichia coli, 37° C., about 20 hours, about 10^4 colony-forming particles. Here is the method:
as §1

Experiment [1] has as its system Mycobacterium smegmatis DSM 43465. Nature of the experiment: MIC by broth microdilution, Mycobacterium smegmatis DSM 43465. The conditions noted are these: Mycolicibacterium smegmatis, DSM43465. As to the method:
(§2) For rapidly growing mycobacteria, the MIC determination was carried out following the method of broth microdilution described by Swenson [cf. J. M. Swenson, C. Thornberry, U. A. Silcox, Rapidly growing mycobacteria. Testing of susceptibility to 34 antimicrobial agents by broth microdilution. Antimicrobial Agents and Chemotherapy Vol. 22, 186-192 (1982)]. A deviation from this was the brain-heart extract medium treated with 0.1% by volume of Tween 80.
(§3) The mycobacterial strains used wvere ordered from DSM (German Collection of Microorganisms, Brunswick). They were incubated at 37° C. in a humid chamber.
(§4) The MICs were read off after 2-4 days when the preparation-free controls were cloudy as a result of growth.

Experiment [2] concerns Mycobacterium smegmatis DSM 43061. In words: MIC by broth microdilution, Mycobacterium smegmatis DSM 43061. To be noted: Mycolicibacterium smegmatis, DSM43061. Here is the method:
as §2, §3, §4

Setting [3] is: DSM 43465, inoculum 3.10U+04 /ml, brain-heart extract medium with 0.1% Tween 80, 37° C., 2-4 days, read-out: MIC.
[4] abbreviates: DSM 43061, inoculum 2.20U+04 /ml, brain-heart extract medium with 0.1% Tween 80, 37° C., 2-4 days, read-out: MIC.

Converted amounts (≈) assume the structure as drawn. Like-named read-outs stand apart in the source and are kept apart here.

As to `CC(=O)NC[C@H]1CN(c2ccc3c(ccc(=O)n3CCO)c2)C(=O)O1` [Example 7], the MIC against Staph. 133 was 8 µg/mL (≈ 23.2 µM); against Staph. 9TV it was 2 µg/mL (≈ 5.79 µM); in the experiment on Psdm. Bonn, > 32 µg/mL; in the experiment with Klebs. 57 USA, > 32 µg/mL; in the experiment with Staph. 48N, 8 µg/mL (≈ 23.2 µM); with Staph 25701 it was 8 µg/mL (≈ 23.2 µM). Moreover, the minimal inhibitory concentration (MIC) against E. coli Neumann is > 32 µg/mL.
Regarding `CC(=O)NC[C@H]1CN(c2ccc3c(ccc(=O)n3C)c2)C(=O)O1` [Example 3], the minimum inhibitory concentration (MIC) against Staph. 133 was 2 µg/mL (≈ 6.34 µM); in the experiment with Staph. 9TV, 1 µg/mL (≈ 3.17 µM); in the experiment with Psdm. Bonn, > 64 µg/mL; in experiment [1] (setting [3]) it was 8 µg/mL (≈ 25.4 µM); against Klebs. 57 USA it was > 64 µg/mL; in the experiment on Staph. 48N, 2 µg/mL (≈ 6.34 µM). The MIC in experiment [2] (setting [4]) is 2 µg/mL (≈ 6.34 µM); with Staph 25701, 2 µg/mL (≈ 6.34 µM); against E. coli Neumann it was > 64 µg/mL.
`NNC(=O)c1ccncc1` [Isoniazide, reference compound]: the results for the minimal inhibitory concentration (MIC) in experiment [1] (setting [3]) and in [2] (setting [4]) were 1 µg/mL (≈ 7.29 µM) and 4 µg/mL (≈ 29.2 µM), respectively.
For `CC(=O)NC[C@H]1CN(c2ccc3c(ccc(=O)n3S(C)(=O)=O)c2)C(=O)O1` [Example 12], the minimum inhibitory concentration (MIC) against Staph. 133 is 8 µg/mL (≈ 21.1 µM); against Staph. 9TV, 4 µg/mL (≈ 10.5 µM); against Psdm. Bonn, > 64 µg/mL; against Klebs. 57 USA it was > 64 µg/mL; against Staph. 48N, 8 µg/mL (≈ 21.1 µM); against Staph 25701 it was 8 µg/mL (≈ 21.1 µM). In the experiment on E. coli Neumann, the MIC is > 64 µg/mL.
`CCn1c(=O)ccc2cc(N3C[C@H](CNC(C)=O)OC3=O)ccc21` [Example 4]: the MIC against Staph. 133 was 4 µg/mL (≈ 12.1 µM); against Staph. 9TV, 2 µg/mL (≈ 6.07 µM); in experiment [1] (setting [3]), 8 µg/mL (≈ 24.3 µM); with Klebs. 57 USA, > 64 µg/mL; in the experiment with Staph. 48N, 8 µg/mL (≈ 24.3 µM); in experiment [2] (setting [4]), 4 µg/mL (≈ 12.1 µM). The minimum inhibitory concentration (MIC) against Staph 25701 was 4 µg/mL (≈ 12.1 µM); against E. coli Neumann it was > 64 µg/mL.
As for `CC(=O)NC[C@H]1CN(c2ccc3c(ccc(=O)n3C(C)C)c2)C(=O)O1` [Example 5], the MIC with Staph. 133 is 16 µg/mL (≈ 46.6 µM); with Staph. 9TV, 8 µg/mL (≈ 23.3 µM); in the experiment with Psdm. Bonn, > 64 µg/mL; against Klebs. 57 USA, > 64 µg/mL; against Staph. 48N, 16 µg/mL (≈ 46.6 µM); with Staph 25701, 16 µg/mL (≈ 46.6 µM). Moreover, the minimum inhibitory concentration (MIC) against E. coli Neumann is > 64 µg/mL.
`[H]/N=C(/N)N[C@H]1[C@H](O)[C@@H](O)[C@H](O[C@@H]2O[C@@H](C)[C@](O)(C=O)[C@H]2O[C@@H]2O[C@@H](CO)[C@H](O)[C@@H](O)[C@@H]2NC)[C@@H](N/C(N)=N\[H])[C@@H]1O` [Streptomycin, reference compound]: the MIC in experiment [1] and in experiment [2] was 4 µg/mL (≈ 6.88 µM) throughout.
With `CC(=O)NC[C@H]1CN(c2ccc3c(ccc(=O)n3CC#N)c2)C(=O)O1` [Example 6], the minimum inhibitory concentration (MIC) in experiment [1] (setting [3]) turned out to be 4 µg/mL (≈ 11.8 µM); in experiment [2] (setting [4]) it was 8 µg/mL (≈ 23.5 µM).
